Measurements published in patent US20160168185A1 (BAYLOR COLLEGE OF MEDICINE, priority 2013, published 2016).
Like-named read-outs stand apart in the source and are kept apart here. One block for each compound: values may come before it.

How the values were obtained:
[1] = test system: MV4-11 MLL leukemia mouse model; details: cited from earlier work
[2] = continuous infusion, subcutaneously implanted osmotic pump; cited from earlier work
[3] = test system: histone methyltransferases CARM1, PRMT1 and SUV39H1
[4] = test system: MDA-MB231; test: Apoptosis of MDA-MB231, FACS with Annexin-V assay; details: 10-day treatment
[5] = test system: claudin-1, -3, E-cadherin, Snail1, Zeb1, Zeb2 expression in MDA-MB231; test: qPCR of cell-cell adhesion and EMT gene expression in MDA-MB231; assay type: cell-based
Description: Fourth, qPCR was used to find if treatment with SYC-522 affects gene expression of cell-cell adhesion and EMT genes. […].

[6] = Human liver microsome stability assay; assay type: in vitro ADME
[7] = test system: panel of other HMTs; test: Activity against a panel of other HMTs
[8] = test system: H3K79 methylation in MV4-11 cells; test: cells; details: Homo sapiens, MV4-11, 96 h, read-out: IC50 of H3K79 methylation inhibition
[9] = Human plasma stability assay; assay type: in vitro ADME
Method: For human plasma stability assay, to human plasma (500 μL) was added a test compound to a final concentration of 5 μM and incubated at 37° C. at approximately 60 rpm on an orbital shaker. Aliquots of 50 μL were taken from the reaction solution at 0, 15, 30, 45 and 60 minutes. The reaction was stopped by the addition of 6 volumes of cold acetonitrile. Samples were centrifuged at 20,000 g for 15 minutes to precipitate protein. An aliquot of 150 μL of the supernatant was used to determine the remaining amount of the test compound, using the same LC/MS/MS method described above. All experiments were performed in duplicate.

SMILES: CC(C)N(CCCNC(=O)Nc1ccc(C(C)(C)C)cc1)C[C@H]1O[C@@H](n2ccc3c(N)ncnc32)[C@H](O)[C@@H]1O [EPZ004777]
- in vivo efficacy in MLL leukemia mouse model in words [1]: weak in vivo activity
- in vivo efficacy in MLL leukemia mouse model in words ([1]; listed as Compound 1): relatively weak in vivo efficacy
- stable plasma drug concentration [2]: ~0.5 µM

SMILES: Nc1ncnc2c1ncn2[C@@H]1O[C@H](CSCC[C@H](N)C(=O)O)[C@@H](O)[C@H]1O [SAH, S-(5′-adenosyl)-L-homocysteine, reference compound]
- activity against CARM1, PRMT1 and SUV39H1 (other HMTs) in words [3]: broad activity

- metabolic stability in human liver microsomes in words [6]: quickly degraded
SMILES: CC(C)N(CCCNC(=O)Nc1ccc(C(C)(C)C)cc1)C[C@H]1O[C@@H](n2cnc3c(N)ncnc32)[C@H](O)[C@@H]1O [SYC-522]
- apoptosis of MDA-MB231 at 2 μM ([4]; 2 μM): negligible apoptosis
- apoptosis of MDA-MB231 at 10 μM ([4]; 10 μM): 18.4%
- Zeb1 and Zeb2 expression [5]: unchanged or slightly increased
- expression of Snail1 [5]: large decreased expression
- increase of the expression of claudin-1, -3 and E-cadherin ([5]; dose-dependent): ≤ 3.9 fold

SMILES: CNc1ncnc2c1ncn2[C@@H]1O[C@H](CSCC[C@H](N)C(=O)O)[C@@H](O)[C@H]1O [compound 24, N6-methyl-SAH]
- activity against a panel of other HMTs in words [7]: inactive

SMILES: CC(C)N(CCCNC(=O)Nc1ccc(C(C)(C)C)cc1)CC1=C[C@@H](n2cnc3c(N)ncnc32)[C@H](O)[C@@H]1O [compound of Formula VII, 1-(3-((((3R,4S,5R)-3-adenosyl-4,5-dihydroxycyclopent-1-en-1-yl)methyl)-(isopropyl)amino)propyl)-3-(4-(tert-butyl)phenyl)urea]
- activity against CARM1, PRMT1 and SUV39H1 (other HMTs) in words [3]: no activity
- IC50 [8]: ~200 nM
- stability in human plasma in words [9]: stable
